This passage reports Activity, Stability and solubility results from ChEMBL document CHEMBL4152265, “Phthalocyanine-sulfonamide conjugates: Synthesis and photodynamic inactivation of Gram-negative and Gram-positive bacteria” (Eur J Med Chem, 2018).

Calls of active or inactive are those of the source. The rule behind the calls is not given here. Bounds are passed on as bounds.

Data set [1] in a line: Induction of singlet oxygen generation in PBS assessed as DPBF decay using PVP encapsulated compound at 0.5 mmol/L measured after 7 mins of LED irradiation at 9 mW/cm2. It counts as functional.
Data set [2] deals with Escherichia coli. Briefly: Effect on viability of recombinant bioluminescence Escherichia coli harboring pHK724/pHK555 using PVP encapsulated compound at 20 uM after 30 mins in absence of light by luminometry. It counts as organism-based. Conditions: in vivo, 0.5 h.
Data set [3] has as its system Escherichia coli. Briefly: Effect on viability of recombinant bioluminescence Escherichia coli harboring pHK724/pHK555 at 20 uM after 30 mins in absence of light by luminometry. Type of data set: organism-based. Conditions: in vivo, 0.5 h.
For data set [4], the system named is Escherichia coli. The data set can be described thus: Antibacterial activity against recombinant bioluminescence Escherichia coli harboring pHK724/pHK555 at 20 uM preincubated in dark for 30 mins followed by red light irradiation at 1620 J/cm2 for 180 mins by luminometry. It counts as functional, organism-based.
Data set [5] can be described thus: Photostability in PBS at 2 ml measured after 30 mins of red light irradiation at 150 mW/cm2 by UV-Vis spectroscopic method. Type of data set: physicochemical. Particulars: buffer, 0.5 h.
The nature of data set [6]: Induction of singlet oxygen generation in DMF assessed as DPBF decay at 0.5 mmol/L measured after 7 mins of LED irradiation at 9 mW/cm2. Type of data set: functional.
The nature of data set [7]: Solubility of compound in PBS/10% DMSO at 2.5 to 25 umol/L by UV-Vis spectroscopic method. Conditions: buffer. It counts as physicochemical.
The nature of data set [8]: Solubility of PVP encapsulated compound in PBS at 2.5 to 25 umol/L by UV-Vis spectroscopic method. Conditions: buffer. Type of data set: physicochemical.
Data set [9] relates to Staphylococcus aureus. Briefly: Antibacterial activity against Staphylococcus aureus ATCC 29213 using PVP encapsulated compound at 20 uM preincubated in dark for 30 mins followed by red light irradiation at 270 J/cm2 for 30 mins by […] relative to control. It counts as functional, organism-based.
Data set [10] deals with Staphylococcus aureus. Briefly: Effect on viability of Staphylococcus aureus ATCC 29213 using PVP encapsulated compound at 20 uM after 30 mins in absence of light by […]. It counts as organism-based. Conditions: in vivo, 0.5 h.
For data set [11], the system named is Staphylococcus aureus. Briefly: Antibacterial activity against Staphylococcus aureus ATCC 29213 at 20 uM preincubated in dark for 30 mins followed by red light irradiation at 270 J/cm2 for 30 mins by […] relative to control. Type of data set: functional.
Data set [12] in a line: Solubility of compound in DMSO at 2.5 to 25 umol/L by UV-Vis spectroscopic method. It counts as physicochemical.
Data set [13] can be described thus: Induction of singlet oxygen generation in PBS/DMSO assessed as DPBF decay at 0.5 mmol/L measured after 7 mins of LED irradiation at 9 mW/cm2. It counts as functional.
Data set [14] has as its system Escherichia coli. Briefly: Antibacterial activity against recombinant bioluminescence Escherichia coli harboring pHK724/pHK555 at 20 uM using PVP encapsulated compound preincubated in dark for 30 mins followed by red light irradiation at 1620 J/cm2 for 180 mins by luminometry. Type of data set: functional, organism-based.
The test system of data set [15] is Staphylococcus aureus. The data set can be described thus: Effect on viability of Staphylococcus aureus ATCC 29213 at 20 uM after 30 mins in absence of light by […]. Type of data set: organism-based. Particulars: in vivo, 0.5 h.

`COc1ccc(NS(=O)(=O)c2ccc(Oc3cc4c(cc3Oc3ccc(S(=O)(=O)Nc5ccc(OC)cc5)cc3)-c3nc-4nc4[nH]c(nc5nc(nc6[nH]c(n3)c3cc(Oc7ccc(S(=O)(=O)Nc8ccc(OC)cc8)cc7)c(Oc7ccc(S(=O)(=O)Nc8ccc(OC)cc8)cc7)cc63)-c3cc(Oc6ccc(S(=O)(=O)Nc7ccc(OC)cc7)cc6)c(Oc6ccc(S(=O)(=O)Nc7ccc(OC)cc7)cc6)cc3-5)c3cc(Oc5ccc(S(=O)(=O)Nc6ccc(OC)cc6)cc5)c(Oc5ccc(S(=O)(=O)Nc6ccc(OC)cc6)cc5)cc43)cc2)cc1`: the Activity in [1] was 59%; in the data set on Escherichia coli [2], “Non-Toxic”; in the data set on Escherichia coli [3] it was “Non-Toxic”; in data set [6] it was 92%; in the data set with Staphylococcus aureus [10], “Non-Toxic”; in the data set with Staphylococcus aureus [11], greater than 3 deltalog10CFU/ml. Besides, the Activity was 4% in data set [13] and “Non-Toxic” in the data set on Staphylococcus aureus [15]. In addition, the outcome in the data set with Escherichia coli [4] and in the data set on Staphylococcus aureus [9] was Active. In data set [5], the Stability entry is on record as “Stable”. The results for the solubility entry in data set [7], in data set [8] and in [12] were “Insoluble”, “Soluble” and “Soluble”, respectively. The outcome in the data set with Escherichia coli [14] was inactive.

As for `CC(C)NS(=O)(=O)c1ccc(Oc2cc3c(cc2Oc2ccc(S(=O)(=O)NC(C)C)cc2)-c2nc-3nc3[nH]c(nc4nc(nc5[nH]c(n2)c2cc(Oc6ccc(S(=O)(=O)NC(C)C)cc6)c(Oc6ccc(S(=O)(=O)NC(C)C)cc6)cc52)-c2cc(Oc5ccc(S(=O)(=O)NC(C)C)cc5)c(Oc5ccc(S(=O)(=O)NC(C)C)cc5)cc2-4)c2cc(Oc4ccc(S(=O)(=O)NC(C)C)cc4)c(Oc4ccc(S(=O)(=O)NC(C)C)cc4)cc32)cc1`, the Activity is 74% in data set [1]; “Non-Toxic” in the data set with Escherichia coli [2]; “Non-Toxic” in the data set on Escherichia coli [3]; 96% in [6]; “Non-Toxic” in the data set with Staphylococcus aureus [10]; 4% in data set [13]. Further, the Activity result in the data set with Staphylococcus aureus [15] was “Non-Toxic”. Moreover, the result with Escherichia coli [4] and in the data set on Staphylococcus aureus [9] was Active. Further, the Stability entry in data set [5] is “Stable”. Besides, the solubility result in data set [7] is reported as “Insoluble”; in data set [8], “Soluble”; in data set [12], “Soluble”. Moreover, the result in the data set with Escherichia coli [14] was inactive.

For `CCN(CC)S(=O)(=O)c1ccc(Oc2cc3c(cc2Oc2ccc(S(=O)(=O)N(CC)CC)cc2)-c2nc-3nc3[nH]c(nc4nc(nc5[nH]c(n2)c2cc(Oc6ccc(S(=O)(=O)N(CC)CC)cc6)c(Oc6ccc(S(=O)(=O)N(CC)CC)cc6)cc52)-c2cc(Oc5ccc(S(=O)(=O)N(CC)CC)cc5)c(Oc5ccc(S(=O)(=O)N(CC)CC)cc5)cc2-4)c2cc(Oc4ccc(S(=O)(=O)N(CC)CC)cc4)c(Oc4ccc(S(=O)(=O)N(CC)CC)cc4)cc32)cc1`, the Activity is 68% in data set [1]; “Non-Toxic” in the data set with Escherichia coli [2]; “Non-Toxic” in the data set with Escherichia coli [3]; 93% in [6]; “Non-Toxic” with Staphylococcus aureus [10]; greater than 3 deltalog10CFU/ml in the data set with Staphylococcus aureus [11]. Further, the Activity in [13] is 1%; in the data set with Staphylococcus aureus [15] it was “Non-Toxic”. In addition, the outcome in the data set with Escherichia coli [4] and in the data set on Escherichia coli [14] was inactive. The Stability result in data set [5] is “Stable”. Also, the solubility entry in [7] is “Insoluble”; in data set [8], “Soluble”; in [12], “Soluble”. In addition, the outcome in the data set on Staphylococcus aureus [9] was Active.
